Data: publication PMC5052559, “A fragment-based approach applied to a highly flexible target: Insights and challenges towards the inhibition of HSP70 isoforms” (Scientific Reports, 2016)

Legend:
S275F HSC70-NBD = target: T1, S275F HSC70-NBD (Homo sapiens, UniProt P11142, S275F); experiment: SPR binding to S275F HSC70-NBD mutant
T1 construct: WT HSPA8 (HSC70) residues 1 to 381; GST (N, cleaved yes); made in house; host or cells: E. coli BL21-AI (expressed as described for FL-HSP72)
Description: SPR experiments were carried out using a Biacore T200 (GE Healthcare) at 25 °C. Amine coupling chemistry was used to immobilise the HSC70 NBD domain and S275W, S275F and S275A HSC70-NBD mutant proteins on a carboxymethyl-5′-dextran (CM5) sensor chip. The chip’s surface was activated with a 10 min injection of a 1:1 mixture of 100 mM N-hydroxysuccinimide and 400 mM 1-ethyl-3-(3-dimethylaminopropyl)-carbodiimide. The HSC70 proteins (70 μg/mL in 10 mM sodium acetate, 750 μM ADP, pH 5.0) were immobilised on the surface over a 10 min injection period. The remaining activated groups on the surface were blocked with a 7 min injection of 1 M ethanolamine at pH 8.5. For all the above procedures the flow rate was maintained at 10 μL/min and a 1x phosphate buffered saline running buffer (PBS running buffer: 10 mM NaHPO4/NaH2PO4 pH 7.4, 2.7 mM KCl, 137 mM NaCl) was used during immobilisation. Approximately ~13,000 response units (RU) of protein could be routinely captured on the CM5 chip on flow cells two to four. Flow cell one was left unmodified as the reference surface. Our in-house fragment library of 1962 fragments at a stock concentration of 100 mM in 100% (v/v) was screened. SPR screening plates were prepared by dispensing of 0.1 μL of each fragment in 384-well polypropylene V-bottomed plates (Greiner) using an ECHO 550 acoustic liquid dispenser (Labcyte) followed by addition of fresh DMSO and running buffer to give a final fragment concentration of 125 μM in 5% (v/v) DMSO in an assay volume of 80 μL.
The full fragment screen was carried out against freshly immobilised WT-HSC70 NBD and the S275W and S275F HSC70-NBD mutants, using the same experimental setting as for the clean screen and a final fragment concentration of 125 μM. Injections of running buffer and of 125 μM adenosine, which was used as a positive control to monitor the health of the protein, were carried out at intervals of 35 cycles throughout the screen. In addition, a DMSO correction curve, prepared as described in the GE manual, was used to correct the effects of the solvent on signal intensity. Raw SPR data from the single point screen was processed and analysed using Pipeline Pilot version 8.0.1.500[37]. Firstly, the reported binding level for each fragment was corrected by subtraction of the buffer blank. Secondly, the values were corrected for the molecular weight of each fragment and the binding was normalised to the binding level observed for the closest adenosine control. […] However, fragments with a binding level exceeding two times the theoretical Rmax were excluded, as we considered this an indication of superstoichiometric binding. Finally, fragments showing preferred binding to wild-type HSC70-NBD versus the HSC70-NBD mutants with a blocked adenine sub pocket were identified by plotting the binding levels of the fragments to wild-type HSC70-NBD against the binding levels of the respective mutant HSC70-NBD variants and added to the primary hit list. In total this procedure yielded 54 initial fragment hits.

WT HSC70-NBD = target: T2, WT HSC70-NBD (Homo sapiens, UniProt P11142); experiment: SPR binding to wild-type HSC70-NBD; details: for Kd / Kd WT HSC70-NBD: 25 °C; for LE (ligand efficiency): calculated using the SPR Kd on WT HSC70-NBD; for increase in affinity compared to parent fragment: SPR Kd, 23 vs 10, 24 vs 19
T2 construct: WT HSPA8 (HSC70) residues 1 to 381; GST (N, cleaved yes); made in house; host or cells: E. coli BL21-AI (expressed as described for FL-HSP72)
T2 sequence (P11142 1-381): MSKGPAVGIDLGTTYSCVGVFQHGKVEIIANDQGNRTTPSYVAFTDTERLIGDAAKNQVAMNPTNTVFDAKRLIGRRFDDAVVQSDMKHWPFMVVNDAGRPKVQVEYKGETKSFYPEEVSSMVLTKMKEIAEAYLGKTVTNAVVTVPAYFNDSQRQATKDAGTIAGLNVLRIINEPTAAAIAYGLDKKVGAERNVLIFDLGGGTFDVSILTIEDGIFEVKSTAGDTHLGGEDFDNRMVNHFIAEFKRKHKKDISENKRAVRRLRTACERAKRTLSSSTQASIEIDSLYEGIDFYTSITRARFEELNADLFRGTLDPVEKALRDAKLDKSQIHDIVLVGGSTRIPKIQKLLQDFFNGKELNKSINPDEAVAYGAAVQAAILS
Description: (§1) SPR experiments were carried out using a Biacore T200 (GE Healthcare) at 25 °C. Amine coupling chemistry was used to immobilise the HSC70 NBD domain and S275W, S275F and S275A HSC70-NBD mutant proteins on a carboxymethyl-5′-dextran (CM5) sensor chip. The chip’s surface was activated with a 10 min injection of a 1:1 mixture of 100 mM N-hydroxysuccinimide and 400 mM 1-ethyl-3-(3-dimethylaminopropyl)-carbodiimide. […] The remaining activated groups on the surface were blocked with a 7 min injection of 1 M ethanolamine at pH 8.5. […] Flow cell one was left unmodified as the reference surface.
(§2) In addition, a DMSO correction curve, prepared as described in the GE manual, was used to correct the effects of the solvent on signal intensity. Raw SPR data from the single point screen was processed and analysed using Pipeline Pilot version 8.0.1.500[37]. Firstly, the reported binding level for each fragment was corrected by subtraction of the buffer blank.
(§3) The initial fragment hits were further investigated in a three-point concentration-response experiment against freshly immobilised WT HSC70-NBD and the S275W HSC70-NBD mutants using the same experimental protocol as for the primary screen. Compound dilutions of 50, 100 and 200 μM were generated using the ECHO 550.

S275W HSC70-NBD = target: T3, S275W HSC70-NBD (Homo sapiens, UniProt P11142, S275W); experiment: SPR binding to S275W HSC70-NBD mutant
T3 construct: WT HSPA8 (HSC70) residues 1 to 381; GST (N, cleaved yes); made in house; host or cells: E. coli BL21-AI (expressed as described for FL-HSP72)
T3 sequence (P11142 1-381 S275W): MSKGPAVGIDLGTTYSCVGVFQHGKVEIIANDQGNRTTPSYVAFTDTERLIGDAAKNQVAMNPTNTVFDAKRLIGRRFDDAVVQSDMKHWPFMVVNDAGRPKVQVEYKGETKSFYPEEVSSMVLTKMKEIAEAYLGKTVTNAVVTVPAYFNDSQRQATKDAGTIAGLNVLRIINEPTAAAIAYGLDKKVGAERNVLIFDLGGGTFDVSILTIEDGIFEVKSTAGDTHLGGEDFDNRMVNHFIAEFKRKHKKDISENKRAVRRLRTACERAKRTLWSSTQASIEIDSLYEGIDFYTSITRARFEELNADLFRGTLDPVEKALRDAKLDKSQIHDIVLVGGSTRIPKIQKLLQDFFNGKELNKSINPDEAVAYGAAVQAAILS
Description: as §1, §2, §3

HSC70-NBD S275A mutant = target: T4, HSC70-NBD S275A mutant (Homo sapiens, UniProt P11142, S275A); experiment: SPR binding to S275A HSC70-NBD mutant; details: n = 3
T4 construct: WT HSPA8 (HSC70) residues 1 to 381; GST (N, cleaved yes); made in house; host or cells: E. coli BL21-AI (expressed as described for FL-HSP72)
T4 sequence (P11142 1-381 S275A): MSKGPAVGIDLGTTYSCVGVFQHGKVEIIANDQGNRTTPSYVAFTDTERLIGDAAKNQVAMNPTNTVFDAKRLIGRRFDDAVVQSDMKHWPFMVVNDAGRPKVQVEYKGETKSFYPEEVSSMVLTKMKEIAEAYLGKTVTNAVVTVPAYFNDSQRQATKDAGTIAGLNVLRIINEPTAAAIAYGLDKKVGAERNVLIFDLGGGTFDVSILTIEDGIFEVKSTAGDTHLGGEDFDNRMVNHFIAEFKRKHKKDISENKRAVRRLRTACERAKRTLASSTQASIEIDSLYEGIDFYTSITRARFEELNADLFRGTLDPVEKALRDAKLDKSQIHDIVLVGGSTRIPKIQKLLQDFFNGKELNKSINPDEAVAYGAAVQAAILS
Description: SPR experiments were carried out using a Biacore T200 (GE Healthcare) at 25 °C. Amine coupling chemistry was used to immobilise the HSC70 NBD domain and […], […] and […] HSC70-NBD mutant proteins on a carboxymethyl-5'-dextran (CM5) sensor chip. […] The remaining activated groups on the surface were blocked with a 7 min injection of 1 M ethanolamine at pH 8.5. For all the above procedures the flow rate was maintained at 10 μL/min and a 1x phosphate buffered saline running buffer (PBS running buffer: 10 mM NaHPO4/NaH2PO4 pH 7.4, 2.7 mM KCl, 137 mM NaCl) was used during immobilisation. Approximately ~13,000 response units (RU) of protein could be routinely captured on the CM5 chip on flow cells two to four. Flow cell one was left unmodified as the reference surface. Our in-house fragment library of 1962 fragments at a stock concentration of 100 mM in 100% (v/v) was screened. SPR screening plates were prepared by dispensing of 0.1 μL of each fragment in 384-well polypropylene V-bottomed plates (Greiner) using an ECHO 550 acoustic liquid dispenser (Labcyte) followed by addition of fresh DMSO and running buffer to give a final fragment concentration of 125 μM in 5% (v/v) DMSO in an assay volume of 80 μL. The initial fragment hits were further investigated in a three-point concentration-response experiment against freshly immobilised WT HSC70-NBD and the […] HSC70-NBD mutants using the same experimental protocol as for the primary screen. Compound dilutions of 50, 100 and 200 μM were generated using the ECHO 550. A confirmed hit was defined as a fragment giving greater than 10% response compared to adenosine and these were prioritised on the basis of their concentration response, ratio of experimental and theoretical Rmax, and shape of the sensorgrams, and expected fast on/fast off binding kinetics. […] HSC70-NBD mutant. […] Nucleotides were dissolved in double distilled water to give 10 mM stock solutions, then diluted 40X with DMSO and tested using a concentration range between 0.0625 μM and 2.5 μM.

[1] = SPR, mean ± SD, No binding = binding level ≤10RU at 1mM
[2] = SPR, mean ± standard deviation or standard error, triplicate unless marked duplicate/single

T1 sequence (P11142 1-381 S275F): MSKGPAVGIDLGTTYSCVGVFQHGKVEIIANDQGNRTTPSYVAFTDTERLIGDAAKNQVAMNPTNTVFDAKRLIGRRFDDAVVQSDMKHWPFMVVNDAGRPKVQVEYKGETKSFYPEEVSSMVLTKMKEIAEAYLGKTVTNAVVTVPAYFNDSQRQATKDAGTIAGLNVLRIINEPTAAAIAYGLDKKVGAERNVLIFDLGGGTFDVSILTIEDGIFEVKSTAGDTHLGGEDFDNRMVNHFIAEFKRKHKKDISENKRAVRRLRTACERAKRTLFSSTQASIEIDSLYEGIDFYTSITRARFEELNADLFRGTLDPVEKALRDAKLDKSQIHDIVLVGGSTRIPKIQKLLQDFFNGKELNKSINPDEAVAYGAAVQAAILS

Row | SMILES | LE (ligand efficiency) (WT HSC70-NBD) | Kd (WT HSC70-NBD; [2]) [µM] | further results
1 | Nc1ncnc2c1ncn2[C@@H]1O[C@H](COP(=O)(O)OP(=O)(O)O)[C@@H](O)[C@H]1O [ADP, reference compound] | 0.31 | – | binding to S275F HSC70-NBD mutant (in words) (S275F HSC70-NBD): abolished binding; Kd (WT HSC70-NBD; [1]): 0.71 ± 0.32 µM; binding to S275W HSC70-NBD mutant (in words) (S275W HSC70-NBD): abolished binding; Kd (HSC70-NBD S275A mutant): 5.6 ± 2.4 µM
2 | Nc1ncnc2c1ncn2[C@@H]1O[C@H](COP(=O)(O)OP(=O)(O)OP(=O)(O)O)[C@@H](O)[C@H]1O [ATP, reference compound] | 0.29 | – | Kd (WT HSC70-NBD; [1]): 0.33 µM; Kd (HSC70-NBD S275A mutant): 2.1 µM
3 | Nc1ccn([C@@H]2O[C@H](COP(=O)(O)OP(=O)(O)O)[C@@H](O)[C@H]2O)c(=O)n1 [CDP, reference compound] | – | – | Kd WT HSC70-NBD (WT HSC70-NBD; [1]): No binding
4 | CN1N=C(N)c2c[nH]c3ncnc1c23 [Compound 3] | – | 3500 ± 600 | –
5 | Nc1ncnc2c1nc(N)n2[C@@H]1O[C@H](CO)[C@@H](O)[C@H]1O [Compound 4, 8-aminoadenosine, reference compound] | 0.35 | – | Kd (WT HSC70-NBD; [1]): 8 µM
6 | Nc1ncnc2[nH]cnc12 [Compound 5, adenine, reference compound] | – | – | Kd WT HSC70-NBD (WT HSC70-NBD; [1]): No binding
7 | Nc1nc2ncnc(N)c2[nH]1 [Compound 6, 8-aminoadenine, reference compound] | 0.34 | – | Kd (WT HSC70-NBD; [1]): 2100 µM
8 | O=c1[nH]cnc2c1oc1ccccc12 [Compound 7] | 0.27 | 1700 ± 600 | binding to S275F HSC70-NBD mutant (in words) (S275F HSC70-NBD): reduced binding and a low degree of saturation; binding to S275W HSC70-NBD mutant (in words) (S275W HSC70-NBD): reduced binding and a low degree of saturation
9 | Cc1ccc2ncnc(N)c2c1 [Compound 8] | 0.33 | 1400 ± 100 | binding to S275F HSC70-NBD mutant (in words) (S275F HSC70-NBD): reduced binding and a low degree of saturation; binding to S275W HSC70-NBD mutant (in words) (S275W HSC70-NBD): reduced binding and a low degree of saturation
10 | Nc1ncnc2ccccc12 [Compound 10] | – | 2100 | –
11 | Cc1nc(N)c2ccccc2n1 [Compound 11] | – | – | binding to WT HSC70-NBD (in words) (WT HSC70-NBD; SPR): no detectable affinity
12 | Cc1cccc2ncnc(N)c12 [Compound 12] | – | 12000 | –
13 | Cc1ccc2c(N)ncnc2c1 [Compound 13, 7-methyl 4-aminoquinazoline] | – | 800 | –
14 | Cc1cccc2c(N)ncnc12 [Compound 14] | – | 2900 | –
15 | COc1cccc2ncnc(N)c12 [Compound 15] | – | 830 | –
16 | COc1ccc2ncnc(N)c2c1 [Compound 16, 6-methoxy 4-aminoquinazoline] | – | 1000 | –
17 | COc1ccc2c(N)ncnc2c1 [Compound 17] | – | 850 | –
18 | COc1cccc2c(N)ncnc12 [Compound 18] | – | 2000 | –
19 | COc1cc2ncnc(N)c2cc1OC [Compound 19] | – | 830 | –
20 | CNc1ncnc2ccccc12 [Compound 20] | – | 4800 ± 1100 | –
21 | OC[C@H]1C[C@@H](Nc2ncnc3ccccc23)[C@H](O)[C@@H]1O [Compound 23] | – | – | increase in affinity compared to parent fragment (WT HSC70-NBD): 7 fold; Kd (WT HSC70-NBD; [1]): 310 ± 100 µM
22 | COc1cc2ncnc(N[C@@H]3C[C@H](CO)[C@@H](O)[C@H]3O)c2cc1OC [Compound 24] | – | 250 | increase in affinity compared to parent fragment (WT HSC70-NBD): three-fold
23 | COc1cccc2ncnc(N[C@@H]3C[C@H](CO)[C@@H](O)[C@H]3O)c12 [Compound 26] | – | 1040 | –
24 | OC[C@H]1C[C@@H](Nc2ncnc3cccc(OCc4ccc(Cl)c(Cl)c4)c23)[C@H](O)[C@@H]1O [Compound 27] | 0.14 | 850 | Kd (S275W HSC70-NBD; single measurement): 5000 µM
25 | OC[C@H]1C[C@@H](Nc2ncnc3cccc(OCc4ccccc4)c23)[C@H](O)[C@@H]1O [Compound 28] | 0.17 | 370 | Kd S275W HSC70-NBD (S275W HSC70-NBD; single measurement): No binding
26 | N#Cc1ccc(COC[C@H]2C[C@@H](Nc3ncnc4cccc(OCc5ccccc5)c34)[C@H](O)[C@@H]2O)cc1 [Compound 29] | 0.10 | 2000 | Kd (S275W HSC70-NBD; single measurement): 2000 µM
27 | Nc1nc2c(ncn2[C@@H]2O[C@H](COP(=O)(O)OP(=O)(O)O)[C@@H](O)[C@H]2O)c(=O)[nH]1 [GDP, reference compound] | 0.18 | – | Kd (WT HSC70-NBD; [1]): 223 µM
28 | Cc1cn([C@H]2C[C@H](O)[C@@H](COP(=O)(O)OP(=O)(O)O)O2)c(=O)[nH]c1=O [TDP, reference compound] | – | – | Kd WT HSC70-NBD (WT HSC70-NBD; [1]): No binding
29 | O=c1ccn([C@@H]2O[C@H](COP(=O)(O)OP(=O)(O)O)[C@@H](O)[C@H]2O)c(=O)[nH]1 [UDP, reference compound] | – | – | Kd WT HSC70-NBD (WT HSC70-NBD; [1]): No binding
